Consider two molecules from patent publication US12551562B2, “Methods and compositions for irreversible enzyme inhibition” (TRITERPENOID THERAPEUTICS, INC., priority 2019, dated 2026).

The subject of assay [1] is Epstein-Barr virus-transformed B-cell lines. Description: Modification of B cell intracellular proteins by triterpenoids, proteomics LC-MS/MS. The assay is classed as cell-based, human. The protocol:
Epstein-Barr virus-transformed B-cell lines were generated with previously described methods by incubating PBMC with supernatant from the Epstein-Barr virus-producing cell line B9-58. B cells were maintained in F1 medium at 37° C., 5% CO2. Cells were plated into an 8-well plate at a concentration of 1×10^6 cells/ml and treated with triterpenoids at different concentrations (0, 1, 10 μM) for 16 hours. 200 μL cells were then plated (1×10^5 cells/well) into a 96-well plate, [^3H]-thymidine (0.5 μCi/well) was then added and incubated for 16 hours. Cell was harvested and the proliferative responses were measured by [^3H]-thymidine incorporation. For the remaining cells, supernatants were removed for ELISA (TNFα, IL10, and IFNγ) and proteomics analysis. The cells were then washed in PBS and lysed with 2D lysis buffer (40 mM Tris base, 7M urea, 2M thiourea, 4% (w/v) CHAPS, and 1% DTT). Cell lysates were sonicated and centrifuged at 18000 rpm for 20 minutes at […]. Supernatants were collected and the protein concentrations were measured by BCA assay. Proteins were denatured and processed for mass spectrometric analysis.
(§1) The tryptic peptides were analyzed by a Triple TOF 5600 mass spectrometer (Sciex). […] Sequence coverage was determined using ProteinPilot software, v4.0 and the most recent version of the SwissProt database.

Assay [2] has as its target T1, His-GSTP (Homo sapiens, UniProt P09211).
T1 construct: made in house; host or cells: E. coli
In words: Modification of His-GSTP by triterpenoids, LC-MS/MS of tryptic digests. The assay is classed as binding. The protocol: His-GSTP was expressed in E. coli as described previously. Purified His-GSTP captured on nickel beads was incubated with a range of concentrations of CDDO-Im (50 nM-10 μM) in phosphate buffer, pH 7.4 for 16 h. CDDO-Me (0.5 mM) was used as a positive control. The beads were then washed 5 times with 1000 μL phosphate buffer. The protein was subjected to on-bead tryptic digestion. In brief, a suspension beads in 30 μL of 50 mM ammonium bicarbonate buffer was incubated with 20 ng of trypsin for 16 h at 37° C. and the digest was analyzed by LC-MS/MS.
(§2) The tryptic peptides were analyzed by a Triple TOF 5600 mass spectrometer (Sciex). Samples were reconstituted in 50 μL 0.1% formic acid (FA) and 2 μL of samples were delivered into the instrument using an Eksigent Nano-LC system mounted with a nanoACQUITY UPLC Symmetry C18 Trap Column and an analytical BEH C18 nanoACQUITY Column (Waters, MA, USA). A NanoSpray III source was fitted with a 10 μm inner diameter PicoTip emitter (New Objective). Samples were loaded in 0.1% formic acid onto the trap, which was then washed with 2% ACN/0.1% FA for 10 min at 2 μL/min before switching in-line with the analytical column. A gradient of 2-50% (v/v) ACN/0.1% (v/v) FA over 90 min was applied to the column at a flow rate of 300 nL/min. Spectra were acquired automatically in positive ion mode using information-dependent acquisition, using mass ranges of 400-1600 amu in MS and 100-1400 amu in MS/MS. Up to 25 MS/MS spectra were acquired per cycle (approximately 10 Hz) using a threshold of 100 counts per s, with dynamic exclusion for 12 s and rolling collision energy. Sequence coverage was determined using ProteinPilot software, v4.0 and the most recent version of the SwissProt database.

Assay [3] deals with T2, recombinant Keap1 (Homo sapiens, UniProt Q14145).
T2 construct: made in house
T2 sequence (Q14145 whole entry): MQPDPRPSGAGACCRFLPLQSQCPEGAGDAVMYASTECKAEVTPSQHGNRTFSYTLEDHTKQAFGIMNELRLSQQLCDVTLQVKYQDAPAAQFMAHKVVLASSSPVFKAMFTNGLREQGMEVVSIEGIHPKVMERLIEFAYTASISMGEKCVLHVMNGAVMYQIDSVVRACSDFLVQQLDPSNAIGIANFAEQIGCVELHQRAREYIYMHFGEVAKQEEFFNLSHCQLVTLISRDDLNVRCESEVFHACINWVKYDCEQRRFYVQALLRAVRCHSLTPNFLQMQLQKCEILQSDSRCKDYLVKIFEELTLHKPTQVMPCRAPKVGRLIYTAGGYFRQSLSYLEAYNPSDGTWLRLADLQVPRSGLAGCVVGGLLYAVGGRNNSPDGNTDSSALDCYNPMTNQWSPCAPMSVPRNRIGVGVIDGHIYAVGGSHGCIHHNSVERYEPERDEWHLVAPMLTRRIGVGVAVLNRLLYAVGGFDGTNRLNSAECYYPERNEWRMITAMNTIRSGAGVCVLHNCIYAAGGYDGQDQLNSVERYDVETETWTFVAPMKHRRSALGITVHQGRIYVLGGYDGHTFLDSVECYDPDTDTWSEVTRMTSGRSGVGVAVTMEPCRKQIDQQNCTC
In words: Modification of Keap1 by triterpenoids, LC-MS/MS of tryptic digests. Conditions: 100 μM, 16 h. It counts as binding. The protocol:
Triterpenoids were dissolved in DMSO to make up 1 mM stock solutions, followed by dilutions in phosphate buffer (10 mM, pH 7.4) and incubated with recombinant Keap1 proteins produced in house at 37° C. for 16 h. The final concentration of triterpenoids was 100 μM. The mixture was then purified by 1D-gel electrophoresis using an established protocol, followed by in gel-digestion. The digests were further purified by C18-ziptiping and analyzed by LC-MS/MS.
as §2, with “Spectra were acquired automatically in positive ion mode using information-dependent acquisition, using mass ranges of 400-1600 amu in MS and 100-1400 amu in MS/MS. Up to 25 MS/MS spectra were acquired per cycle (approximately 10 Hz) using a threshold of 100 counts per s, with dynamic exclusion for 12 s and rolling collision energy.” left out

Assay [4] has as its target T3, LONP protein (Homo sapiens, UniProt P36776).
T3 construct: Professor John Letterio (supplied; not a vendor)
T3 sequence (P36776 68-959): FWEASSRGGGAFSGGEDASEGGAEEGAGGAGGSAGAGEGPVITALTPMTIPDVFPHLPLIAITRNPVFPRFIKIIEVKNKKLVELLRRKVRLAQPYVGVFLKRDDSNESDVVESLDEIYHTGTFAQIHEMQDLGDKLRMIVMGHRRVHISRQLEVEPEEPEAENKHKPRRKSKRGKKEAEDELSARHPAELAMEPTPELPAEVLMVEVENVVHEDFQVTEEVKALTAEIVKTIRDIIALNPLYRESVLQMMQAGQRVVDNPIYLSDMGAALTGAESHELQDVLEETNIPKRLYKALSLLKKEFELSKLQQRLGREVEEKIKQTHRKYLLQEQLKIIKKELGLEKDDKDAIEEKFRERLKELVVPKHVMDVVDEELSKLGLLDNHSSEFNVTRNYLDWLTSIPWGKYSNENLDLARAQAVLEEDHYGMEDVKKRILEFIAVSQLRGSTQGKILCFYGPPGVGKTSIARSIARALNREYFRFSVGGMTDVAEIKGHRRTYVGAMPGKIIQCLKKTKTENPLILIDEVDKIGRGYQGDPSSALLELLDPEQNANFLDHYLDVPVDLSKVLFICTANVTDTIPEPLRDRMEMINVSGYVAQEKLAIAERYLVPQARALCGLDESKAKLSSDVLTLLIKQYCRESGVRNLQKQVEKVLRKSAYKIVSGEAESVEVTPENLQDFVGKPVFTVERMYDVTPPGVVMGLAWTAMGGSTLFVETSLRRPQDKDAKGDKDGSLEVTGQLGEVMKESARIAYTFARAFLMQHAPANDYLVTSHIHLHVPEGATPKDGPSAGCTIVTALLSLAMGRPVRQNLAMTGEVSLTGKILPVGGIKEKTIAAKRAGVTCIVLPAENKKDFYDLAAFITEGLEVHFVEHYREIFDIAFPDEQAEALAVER
In words: Modification of LONP by triterpenoids, LC-MS/MS of tryptic digests. It counts as binding. Conditions: 100 μM, 16 h; lysine (3), cysteine (3), tyrosine (2). The method, then:
The LONP protein (Professor John Letterio) was first purified by buffer exchange using spin filters (3K MWCO). 10 μg protein was then incubated with CDDO-2P-Im (100 μM) in phosphate buffer (10 mM, pH 7.4) at 37° C. for 16 h. The mixture was then purified by 1D-gel electrophoresis using an established protocol, followed by in gel-digestion. The digests were further purified by C18-ziptiping and analyzed by LC-MS/MS.
as §2, with “Spectra were acquired automatically in positive ion mode using information-dependent acquisition, using mass ranges of 400-1600 amu in MS and 100-1400 amu in MS/MS. Up to 25 MS/MS spectra were acquired per cycle (approximately 10 Hz) using a threshold of 100 counts per s, with dynamic exclusion for 12 s and rolling collision energy.” left out

Assay [5] concerns the target T4, HSA (Homo sapiens, UniProt P02768).
T4 construct: contains 585 amino acids (corresponding to 25-609 of P02768); purchased Sigma-Aldrich
Description: Modification of HSA by triterpenoids, LC-MS/MS of tryptic digests. It counts as binding. The protocol:
Triterpenoids were dissolved in DMSO to make up 1 mM stock solutions, followed by dilutions in phosphate buffer (10 mM, pH 7.4) and incubated with recombinant HSA (0.6 mM, 50 μL) in sealed Eppendorf tubes at 37° C. for 16 h. The molar ratios of drug to protein were 0.00001:1, 0.0001:1, 0.001:1, 0.01:1, 0.1:1, and 1:1. Protein was precipitated twice with 9 volumes of ice-cold methanol to remove free drug, resuspended in 50 μL phosphate buffer and then reduced with 10 mM dithiothreitol (15 min) and alkylated with 55 mM iodoacetamide (15 min) at room temperature. The protein was precipitated with methanol once more and finally dissolved in 100 μL 50 mM ammonium hydrogencarbonate, and 165 μg […] of protein was digested with 1.6 μg trypsin overnight at 37° C.
To examine the time-dependent modification of HSA by triterpenoids, 10 μM triterpenoids was incubated with HSA (0.6 mM, 300 μL) at 37° C. Aliquots of 50 μL were removed after 10, 30, 60, and 180 minutes and processed for LC-MS/MS analysis.
as §1

T1 sequence (P09211 whole entry): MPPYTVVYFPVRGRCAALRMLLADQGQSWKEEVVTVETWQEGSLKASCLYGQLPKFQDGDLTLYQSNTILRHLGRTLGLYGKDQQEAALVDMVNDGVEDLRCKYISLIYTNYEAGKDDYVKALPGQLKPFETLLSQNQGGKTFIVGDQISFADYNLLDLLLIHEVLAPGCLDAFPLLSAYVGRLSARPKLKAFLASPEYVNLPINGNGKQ
T4 sequence (P02768 25-609): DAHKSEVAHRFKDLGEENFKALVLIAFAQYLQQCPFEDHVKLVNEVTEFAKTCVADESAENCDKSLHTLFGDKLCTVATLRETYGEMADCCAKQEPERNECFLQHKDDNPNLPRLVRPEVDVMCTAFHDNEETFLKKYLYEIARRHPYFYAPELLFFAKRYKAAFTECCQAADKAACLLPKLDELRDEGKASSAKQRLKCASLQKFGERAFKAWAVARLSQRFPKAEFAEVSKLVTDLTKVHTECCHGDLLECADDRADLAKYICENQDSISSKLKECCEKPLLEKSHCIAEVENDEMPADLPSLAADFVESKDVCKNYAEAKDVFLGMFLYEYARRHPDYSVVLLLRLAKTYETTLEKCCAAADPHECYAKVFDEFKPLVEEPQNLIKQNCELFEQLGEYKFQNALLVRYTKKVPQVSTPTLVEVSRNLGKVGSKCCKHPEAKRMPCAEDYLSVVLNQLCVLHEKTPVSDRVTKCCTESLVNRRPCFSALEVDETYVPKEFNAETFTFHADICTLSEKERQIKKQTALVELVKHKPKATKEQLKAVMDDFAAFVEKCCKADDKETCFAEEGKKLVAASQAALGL

As to `CC1(C)CC[C@]2(C(=O)n3cnc(-c4ccccn4)c3)CC[C@]3(C)[C@H](C(=O)C=C4[C@@]5(C)C=C(C#N)C(=O)C(C)(C)[C@@H]5CC[C@]43C)[C@@H]2C1` [CDDO-2P-Im, 1-[2-Cyano-3,12-dioxooleana-1,9(11)-dien-28-oyl]-4(-pyridin-2-yl)-1H-imidazole], the “number of modified B cell proteins identified” value in assay [1] (10 μM for 16 hours) is listed as 32. In addition, the “modification of the 4 active cysteine residues of PPIA” value in assay [1] (B cells treated with 10 μM for 16 hours) is “all modified”. For the same molecule, the “covalent binding to GSTP, dependence on concentration” value in assay [2] (16 hour incubation at 37° C.) is on record as “bind to GSTP in a similar manner”. Also, the “plateau of binding to GSTP” value in assay [2] (in comparison to CDDO-Im, 16 hour incubation at 37° C., FIG. 1C/1D) is recorded as “binding does not plateau above 5 μM”. Moreover, the “preferred binding site on GSTP” value in assay [2] (increasing drug concentrations, 16 hour incubation at 37° C., FIG. 1D) is on record as “Cys48”. In addition, the “modification of Cys151 of Keap1” value in assay [3] was “not detected”. Also, in assay [3] (phosphate buffer pH 7.4), the “number of binding sites identified on Keap1” value is given as 8. In addition, in assay [4], the “number of modified LONP peptides” value is 8. For the same molecule, in assay [5] (500 μM, 16 h, lysine (9), arginine (2), serine (7), tyrosine (5)), the “number of CDDO-modified HSA peptides” value turned out to be 23.
With `CC1(C)CC[C@]2(C(=O)n3ccnc3)CC[C@]3(C)[C@H](C(=O)C=C4[C@@]5(C)C=C(C#N)C(=O)C(C)(C)[C@@H]5CC[C@]43C)[C@@H]2C1` [CDDO-Im, 1-(2-cyano-3,12-dioxooleana-1,9(11)-dien-28-oyl) imidazole], in assay [2] (16 hour incubation at 37° C.), the “covalent binding to GSTP, dependence on concentration” value was “concentration-dependent”. The “lowest concentration at which adducts with GSTP were detectable” value in assay [2] (phosphate buffer pH 7.4, 16 h, 50 nM-10 μM tested) turned out to be 50 nM. Moreover, the “site of the simple Michael adduct (CDDO carboxylate, +491.5 amu) on GSTP” value in assay [2] (tryptic digests of treated GSTP) is on record as “only detected on Cys48”. The “modification of HSA, dependence on concentration and time” value in assay [5] (normalized ion counts of modified peptides) is “concentration- and time-dependent”.
